{"source": "BindingDB's records for doi:10.1016/j.bmcl.2004.01.021", "about": "(Atherogenics, 2004)", "note": "pIC50: −log10 of the molar value.", "data": [{"biological_target": "T1, Tumor necrosis factor receptor superfamily member 1A (Homo sapiens, UniProt P19438)", "T1 sequence (P19438 whole entry)": "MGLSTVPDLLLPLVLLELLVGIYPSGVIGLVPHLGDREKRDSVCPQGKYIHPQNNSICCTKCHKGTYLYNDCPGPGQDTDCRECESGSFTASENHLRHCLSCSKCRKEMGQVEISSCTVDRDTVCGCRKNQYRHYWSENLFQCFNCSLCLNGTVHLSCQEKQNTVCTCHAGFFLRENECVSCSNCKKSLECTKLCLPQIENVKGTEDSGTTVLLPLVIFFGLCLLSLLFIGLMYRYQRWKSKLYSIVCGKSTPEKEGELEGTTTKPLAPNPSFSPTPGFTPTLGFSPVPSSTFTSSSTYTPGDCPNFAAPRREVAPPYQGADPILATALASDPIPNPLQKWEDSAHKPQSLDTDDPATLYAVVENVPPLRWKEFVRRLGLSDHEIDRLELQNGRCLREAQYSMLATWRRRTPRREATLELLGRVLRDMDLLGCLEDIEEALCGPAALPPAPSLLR", "experiment": "ChEBML_224214", "source_text": "Inhibition of TNF-alpha-induced VCAM-1 expression", "values": [{"molecule": "COc1cc(OC)c(-c2cc3ccccc3s2)cc1/C=C/C(=O)c1cc(OC)c(OCC2CC2)c(OC)c1", "note": "[(E)-3-(5-Benzo[b]thiophen-2-yl-2,4-dimethoxy-phenyl)-1-(4-cyclopropylmethoxy-3,5-dimethoxy-phenyl)-propenone]", "pIC50": "< 4.30"}, {"molecule": "COC1=C(c2c(OC)cc(C(=O)/C=C/c3cc(OC)c(OC)c(OC)c3)cc2OC)Oc2ccccc2O1", "note": "[(E)-1-[3,5-Dimethoxy-4-(3-methoxy-benzo[1,4]dioxin-2-yl)-phenyl]-3-(3,4,5-trimethoxy-phenyl)-propenone]", "pIC50": 5.70}, {"molecule": "COc1ccc(-c2ccc(C)s2)cc1/C=C/C(=O)c1ccc2c(c1)OCO2", "note": "[(E)-1-Benzo[1,3]dioxol-5-yl-3-[2-methoxy-5-(5-methyl-thiophen-2-yl)-phenyl]-propenone]", "pIC50": 5.52}, {"molecule": "COc1cc(/C=C/C(=O)c2cc(OC)c(OCc3ccccc3)c(OC)c2)cc(Br)c1OC", "note": "[(E)-1-(4-Benzyloxy-3,5-dimethoxy-phenyl)-3-(3-bromo-4,5-dimethoxy-phenyl)-propenone]", "pIC50": "< 4.30"}, {"molecule": "COc1ccc(-c2cccs2)cc1/C=C/C(=O)c1cc(OC)c(OC)c(OC)c1", "note": "[(E)-3-(2-Methoxy-5-thiophen-2-yl-phenyl)-1-(3,4,5-trimethoxy-phenyl)-propenone]", "pIC50": 5.52}, {"molecule": "COc1cc(OCC(=O)O)c(/C=C/C(=O)c2ccccc2)cc1-c1cc2ccccc2s1", "note": "[[4-Benzo[b]thiophen-2-yl-5-methoxy-2-((E)-3-oxo-3-phenyl-propenyl)-phenoxy]-acetic acid]", "pIC50": 6.00}, {"molecule": "COc1ccc(-c2cccs2)cc1/C=C/C(=O)c1c(OC)cccc1OC", "note": "[(E)-1-(2,6-Dimethoxy-phenyl)-3-(2-methoxy-5-thiophen-2-yl-phenyl)-propenone]", "pIC50": 5.52}, {"molecule": "COc1ccc(COc2c(OC)cc(C(=O)/C=C/c3cc(OC)c(OC)c(OC)c3)cc2OC)cc1", "note": "[(E)-1-[3,5-Dimethoxy-4-(4-methoxy-benzyloxy)-phenyl]-3-(3,4,5-trimethoxy-phenyl)-propenone]", "pIC50": 6.00}, {"molecule": "COc1cc(OC)c(-c2cc3ccccc3s2)cc1/C=C/C(=O)c1cc(OC)c(OC)c(OC)c1", "note": "[(E)-3-(5-Benzo[b]thiophen-2-yl-2,4-dimethoxy-phenyl)-1-(3,4,5-trimethoxy-phenyl)-propenone]", "pIC50": 5.30}, {"molecule": "CC(C)(C)c1cc(C(=O)/C=C/c2ccccc2)cc(C(C)(C)C)c1O", "note": "[(E)-1-(3,5-Di-tert-butyl-4-hydroxy-phenyl)-3-phenyl-propenone]", "pIC50": 4.33}, {"molecule": "COc1ccc(C(=O)/C=C/c2cc(-c3cc4ccccc4s3)ccc2OC)cc1", "note": "[(E)-3-(5-Benzo[b]thiophen-2-yl-2-methoxy-phenyl)-1-(4-methoxy-phenyl)-propenone]", "pIC50": 5.52}, {"molecule": "O=C(/C=C/c1ccccc1)c1ccccc1", "note": "[Chalcone, 13]", "pIC50": 4.64}, {"molecule": "COCCOc1c(OC)cc(C(=O)/C=C/c2cc(OC)c(OC)c(OC)c2)cc1OC", "note": "[(E)-1-[3,5-Dimethoxy-4-(2-methoxy-ethoxy)-phenyl]-3-(3,4,5-trimethoxy-phenyl)-propenone]", "pIC50": 5.30}, {"molecule": "COc1ccc(-c2cccs2)cc1/C=C/C(=O)c1cc(OC)c(OCC(=O)O)c(OC)c1", "note": "[{2,6-Dimethoxy-4-[(E)-3-(2-methoxy-5-thiophen-2-yl-phenyl)-acryloyl]-phenoxy}-acetic acid]", "pIC50": 6.00}, {"molecule": "COc1ccc(-c2cc3ccccc3s2)cc1/C=C/C(=O)c1cc(OC)c(OC)c(OC)c1", "note": "[(E)-3-(5-Benzo[b]thiophen-2-yl-2-methoxy-phenyl)-1-(3,4,5-trimethoxy-phenyl)-propenone]", "pIC50": 5.70}, {"molecule": "COc1cc(C(=O)/C=C/c2cc(-c3cccs3)ccc2OC)ccc1O", "note": "[(E)-1-(4-Hydroxy-3-methoxy-phenyl)-3-(2-methoxy-5-thiophen-2-yl-phenyl)-propenone]", "pIC50": 5.15}, {"molecule": "COc1ccc(C(=O)/C=C/c2ccccc2)cc1OC", "note": "[3',4'-dimethoxychalcone]", "pIC50": 5.10}, {"molecule": "COc1cc(OC)c(/C=C/C(=O)c2cc(OC)c(OC)c(OC)c2)cc1Br", "note": "[(E)-3-(5-Bromo-2,4-dimethoxy-phenyl)-1-(3,4,5-trimethoxy-phenyl)-propenone]", "pIC50": 5.70}]}]}
